Literature values in patent publication JPH06128153A, “トラニラスト軟膏組成物およびその製造方法” (Kissei Pharmaceutical Co Ltd, priority 1992, dated 1994).
Like-named read-outs stand apart in the source and are kept apart here.

Conditions: stated as known, no test described

Row | solubility in water | solubility in water (ナトリウム塩) | SMILES
1 | 極めて難溶 | – | COc1ccc(/C=C/C(=O)Nc2ccccc2C(=O)O)cc1OC [トラニラスト]
2 | – | わずかしか溶解しない | COc1ccc(/C=C/C(=O)Nc2ccccc2C(=O)O)cc1OC [ナトリウム塩]
